Results taken from patent US12624067B2, “Cyclic peptide, cell scaffold material, cell separating material, and medium” (FUJIFILM Corporation, priority 2019, dated 2026).
Read-outs that look alike come from different tables or passages of the source. Numbered stars: 1 amine (or outer) side, 2 acyl side, 3 side chain; on linkers, the order of the positions; unused ones are H or OH. Bridge positions count the residues as written; N and C are the ends. Square brackets hold non-standard residues; d marks the D form. Peptide text beside a SMILES is read from it. hCys = N[C@@H](CCS)C(=O)O; Orn = NCCC[C@H](N)C(=O)O; X1 = O=C(C[*:1])[*:2]; X2 = O=C(C[*:2])[*:1]

What was measured:
[1] = target: human integrin αvβ5 (Homo sapiens, UniProt P06756+P18084); experiment: Evaluation of integrin binding property (surface plasmon resonance, Biacore 3000, immobilized cyclic peptide)
Chain of human integrin αvβ5 (P06756 31-889 limits assumed): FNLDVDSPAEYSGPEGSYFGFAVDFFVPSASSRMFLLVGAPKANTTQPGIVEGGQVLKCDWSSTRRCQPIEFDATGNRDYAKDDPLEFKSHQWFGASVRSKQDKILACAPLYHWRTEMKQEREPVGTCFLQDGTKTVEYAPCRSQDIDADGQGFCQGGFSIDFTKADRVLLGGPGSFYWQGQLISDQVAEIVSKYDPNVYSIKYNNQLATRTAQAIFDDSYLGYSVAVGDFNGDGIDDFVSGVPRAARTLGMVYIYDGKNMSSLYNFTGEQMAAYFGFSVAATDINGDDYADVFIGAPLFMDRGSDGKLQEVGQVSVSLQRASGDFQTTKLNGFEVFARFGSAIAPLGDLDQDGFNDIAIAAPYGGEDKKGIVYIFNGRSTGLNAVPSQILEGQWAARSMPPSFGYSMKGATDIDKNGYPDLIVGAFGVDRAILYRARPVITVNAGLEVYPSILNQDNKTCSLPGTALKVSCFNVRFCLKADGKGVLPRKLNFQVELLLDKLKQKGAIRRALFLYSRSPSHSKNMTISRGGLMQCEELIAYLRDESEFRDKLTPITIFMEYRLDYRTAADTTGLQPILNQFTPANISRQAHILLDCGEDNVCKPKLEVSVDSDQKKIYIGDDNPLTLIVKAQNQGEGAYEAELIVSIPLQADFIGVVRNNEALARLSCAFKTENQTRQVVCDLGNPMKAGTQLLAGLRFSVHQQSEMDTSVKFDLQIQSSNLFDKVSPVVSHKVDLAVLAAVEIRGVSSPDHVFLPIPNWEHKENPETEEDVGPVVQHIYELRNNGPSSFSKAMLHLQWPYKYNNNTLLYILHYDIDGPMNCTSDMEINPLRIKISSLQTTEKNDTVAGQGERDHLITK
Chain of human integrin αvβ5 (P06756 891-1048 partner limits assumed): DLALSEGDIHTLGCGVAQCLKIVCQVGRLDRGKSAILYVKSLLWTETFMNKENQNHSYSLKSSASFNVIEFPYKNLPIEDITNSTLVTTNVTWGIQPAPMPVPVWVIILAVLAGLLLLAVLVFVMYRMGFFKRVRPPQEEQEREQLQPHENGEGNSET
Chain of human integrin αvβ5 (P18084 24-799): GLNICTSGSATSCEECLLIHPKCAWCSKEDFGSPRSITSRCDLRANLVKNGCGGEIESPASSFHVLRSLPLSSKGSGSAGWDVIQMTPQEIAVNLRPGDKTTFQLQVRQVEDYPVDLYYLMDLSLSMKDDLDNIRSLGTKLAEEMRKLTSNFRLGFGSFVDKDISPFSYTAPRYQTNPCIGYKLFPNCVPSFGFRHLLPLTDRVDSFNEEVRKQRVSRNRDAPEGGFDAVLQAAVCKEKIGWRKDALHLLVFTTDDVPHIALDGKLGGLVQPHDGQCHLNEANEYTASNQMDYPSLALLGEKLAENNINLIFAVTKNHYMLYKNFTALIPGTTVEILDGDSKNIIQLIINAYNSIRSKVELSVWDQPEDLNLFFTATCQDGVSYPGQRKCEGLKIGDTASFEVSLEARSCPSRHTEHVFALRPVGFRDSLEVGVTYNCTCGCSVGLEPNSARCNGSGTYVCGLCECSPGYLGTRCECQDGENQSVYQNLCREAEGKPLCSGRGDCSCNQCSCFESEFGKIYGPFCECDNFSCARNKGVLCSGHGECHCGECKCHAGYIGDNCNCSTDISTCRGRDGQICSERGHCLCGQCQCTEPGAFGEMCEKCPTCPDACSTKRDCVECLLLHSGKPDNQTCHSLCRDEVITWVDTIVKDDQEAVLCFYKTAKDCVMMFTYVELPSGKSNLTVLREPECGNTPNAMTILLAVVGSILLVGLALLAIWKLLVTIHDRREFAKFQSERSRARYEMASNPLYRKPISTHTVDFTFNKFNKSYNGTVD
In short: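 Cyclic peptides amine-coupled to a CM5 chip via EDC/NHS, with a blank reference channel; integrin injected 10 min at 25 °C at 30, 100, 300 and 1,000 nM in HEPES pH 7.4, 150 mM NaCl, 5 mM MgCl2, then 30 min buffer flow, EDTA regeneration. Kd from reference-subtracted responses, graded by category.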

[2] = Evaluation of molecule stability (alkali treatment, LC/MS residual rate); format: physicochemical; conditions: 500 μM peptide plus equivalent of 1 M sodium hydroxide, 15° C., 20 minutes, LC/MS peak area
In short: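 Cyclic peptide at 500 μM in water treated with an equivalent of 1 M NaOH for 20 minutes at 15° C. Residual rate is the total LC/MS peak area after treatment relative to that before treatment, set as 100%. Analysis on a C18 column at 45° C with ammonium formate pH 3 eluents and ESI detection.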

[3] = peptide immobilized on CM5 sensor chip, human integrin αvβ5 30-1,000 nM, 25° C., HEPES buffer with 5 mM magnesium chloride, read-out: Integrin binding property (dissociation constant)

SMILES	Kd [1, 3]	Molecule stability (cyclic peptide residual rate) [2]	Kd [1]
C[C@H](NC(=O)[C@@H]1CCCCNC(=O)CSCC[C@H](NC(=O)[C@H](CCCCN)NC(=O)[C@H](CCCCN)NC(=O)[C@@H](N)CCCCN)C(=O)N[C@H]2CCSCC(=O)NCCCC[C@H](NC(=O)[C@H](CC(=O)O)NC(=O)CNC(=O)[C@H](CCCNC(=N)N)NC2=O)C(=O)N[C@@H](Cc2ccccc2)C(=O)N1)C(=O)O [Cyclic peptide 37] (H-KKK[hCys][hCys]RGDKFKA-OH; linker 4-11, 5-9 via X1)	50 to 100 nM	A (The residual rate of the cyclic peptide is 70% or more.)	
CC(C)[C@@H]1NC(=O)CSCC[C@@H](C(=O)N[C@@H](CCCCN)C(=O)N[C@@H](CCCCN)C(=O)N[C@@H](CCCCN)C(=O)O)NC(=O)[C@H](Cc2ccccc2)NC(=O)[C@@H]2CCCNC(=O)CSCC[C@H](NC1=O)C(=O)N[C@@H](CCCNC(=N)N)C(=O)NCC(=O)N[C@@H](CC(=O)O)C(=O)N2 [Cyclic peptide 41] ({CH2CO}-V[hCys]RGD[Orn]F[hCys]KKK-OH; linker 2-6 via X1; thioether N-8)	50 to 100 nM	A (The residual rate of the cyclic peptide is 70% or more.)	
N=C(N)NCCC[C@@H]1NC(=O)[C@@H]2CCSCC(=O)NCCC[C@H](NC(=O)[C@H](CC(=O)O)NC(=O)CNC1=O)C(=O)N[C@@H](Cc1ccccc1)C(=O)N[C@H](C(=O)N[C@@H](CCCCN)C(=O)N[C@@H](CCCCN)C(=O)N[C@@H](CCCCN)C(=O)O)CCSCC(=O)N[C@@H](CC(=O)O)C(=O)N2 [Cyclic peptide 42] ({CH2CO}-D[hCys]RGD[Orn]F[hCys]KKK-OH; linker 2-6 via X1; thioether N-8)	< 50 nM	A (The residual rate of the cyclic peptide is 70% or more.)	
CC(C)[C@@H]1NC(=O)CSCC[C@@H](C(=O)N[C@@H](C)C(=O)N[C@@H](CCCCN)C(=O)N[C@@H](CCCCN)C(=O)N[C@@H](CCCCN)C(=O)O)NC(=O)[C@H](Cc2ccccc2)NC(=O)[C@@H]2CCCCNC(=O)CSCC[C@H](NC1=O)C(=O)N[C@@H](CCCNC(=N)N)C(=O)NCC(=O)N[C@@H](CC(=O)O)C(=O)N2 [Cyclic peptide 44] ({CH2CO}-V[hCys]RGDKF[hCys]AKKK-OH; linker 2-6 via X1; thioether N-8)	< 50 nM	A (The residual rate of the cyclic peptide is 70% or more.)	
C[C@H](NC(=O)[C@@H]1CCSCC(=O)N[C@@H](CCC(=O)O)C(=O)N[C@H]2CCSCC(=O)NCCCC[C@H](NC(=O)[C@H](CC(=O)O)NC(=O)CNC(=O)[C@H](CCCNC(=N)N)NC2=O)C(=O)N[C@@H](Cc2ccccc2)C(=O)N1)C(=O)N[C@@H](CCCCN)C(=O)N[C@@H](CCCCN)C(=O)N[C@@H](CCCCN)C(=O)O [Cyclic peptide 46] ({CH2CO}-E[hCys]RGDKF[hCys]AKKK-OH; linker 2-6 via X1; thioether N-8)	< 50 nM	A (The residual rate of the cyclic peptide is 70% or more.)	
C[C@H](NC(=O)[C@@H]1CCSCC(=O)N[C@@H](CCC(=O)O)C(=O)N[C@H]2CCSCC(=O)NCCC[C@H](NC(=O)[C@H](CC(=O)O)NC(=O)CNC(=O)[C@H](CCCNC(=N)N)NC2=O)C(=O)N[C@@H](Cc2ccccc2)C(=O)N1)C(=O)N[C@@H](CCCCN)C(=O)N[C@@H](CCCCN)C(=O)N[C@@H](CCCCN)C(=O)O [Cyclic peptide 47] ({CH2CO}-E[hCys]RGD[Orn]F[hCys]AKKK-OH; linker 2-6 via X1; thioether N-8)	< 50 nM	A (The residual rate of the cyclic peptide is 70% or more.)	
C[C@H](N)C(=O)N[C@H]1CSSC[C@@H](C(=O)NCC(=O)N[C@@H](CCCCN)C(=O)N[C@@H](CCCCN)C(=O)N[C@@H](CCCCN)C(=O)O)NC(=O)[C@H](Cc2ccccc2)NC(=O)[C@@H]2CSSC[C@H](NC(=O)[C@H](CC(=O)O)NC1=O)C(=O)N[C@@H](CCCNC(=N)N)C(=O)NCC(=O)N[C@@H](CC(=O)O)C(=O)N2 [Cyclic peptide 49, ACDCRGDCFCGKKK, reference compound] (H-ACDCRGDCFCGKKK-OH; disulfide 2-10, 4-8)		D (The residual rate of the cyclic peptide is less than 30%.)	< 50 nM

Continued, in another order:

Kd [1, 3]	SMILES	Molecule stability (cyclic peptide residual rate) [2]	Kd [1]
50 to 100 nM	C[C@H](N)C(=O)N[C@H]1CCSCC(=O)NCCCC[C@@H](C(=O)N[C@@H](CCCCN)C(=O)N[C@@H](CCCCN)C(=O)N[C@@H](CCCCN)C(=O)O)NC(=O)[C@H](Cc2ccccc2)NC(=O)[C@@H]2CCCCNC(=O)CSCC[C@H](NC1=O)C(=O)N[C@@H](CCCNC(=N)N)C(=O)NCC(=O)N[C@@H](CC(=O)O)C(=O)N2 [Cyclic peptide 36] (H-A[hCys][hCys]RGDKFKKKK-OH; linker 2-9, 3-7 via X1)	A (The residual rate of the cyclic peptide is 70% or more.)	
< 50 nM	CC(C)[C@@H]1NC(=O)CSCC[C@@H](C(=O)N[C@@H](CCCCN)C(=O)N[C@@H](CCCCN)C(=O)N[C@@H](CCCCN)C(=O)O)NC(=O)[C@H](Cc2ccccc2)NC(=O)[C@@H]2CCSCC(=O)NCCC[C@H](NC1=O)C(=O)N[C@@H](CCCNC(=N)N)C(=O)NCC(=O)N[C@@H](CC(=O)O)C(=O)N2 [Cyclic peptide 38] ({CH2CO}-V[Orn]RGD[hCys]F[hCys]KKK-OH; linker 2-6 via X2; thioether N-8)	A (The residual rate of the cyclic peptide is 70% or more.)	
< 50 nM	N=C(N)NCCC[C@@H]1NC(=O)[C@@H]2CCCNC(=O)CSCC[C@H](NC(=O)[C@H](CC(=O)O)NC(=O)CNC1=O)C(=O)N[C@@H](Cc1ccccc1)C(=O)N[C@H](C(=O)N[C@@H](CCCCN)C(=O)N[C@@H](CCCCN)C(=O)N[C@@H](CCCCN)C(=O)O)CCSCC(=O)N[C@@H](CC(=O)O)C(=O)N2 [Cyclic peptide 39] ({CH2CO}-D[Orn]RGD[hCys]F[hCys]KKK-OH; linker 2-6 via X2; thioether N-8)	A (The residual rate of the cyclic peptide is 70% or more.)	
< 50 nM	N=C(N)NCCC[C@@H]1NC(=O)[C@@H]2CCCNC(=O)CSCC[C@H](NC(=O)[C@H](CC(=O)O)NC(=O)CNC1=O)C(=O)N[C@@H](Cc1ccccc1)C(=O)N[C@H](C(=O)N[C@@H](CCCCN)C(=O)N[C@@H](CCCCN)C(=O)N[C@@H](CCCCN)C(=O)O)CCSCC(=O)N[C@@H](CCC(=O)O)C(=O)N2 [Cyclic peptide 40] ({CH2CO}-E[Orn]RGD[hCys]F[hCys]KKK-OH; linker 2-6 via X2; thioether N-8)	A (The residual rate of the cyclic peptide is 70% or more.)	
< 50 nM	N=C(N)NCCC[C@@H]1NC(=O)[C@@H]2CCSCC(=O)NCCC[C@H](NC(=O)[C@H](CC(=O)O)NC(=O)CNC1=O)C(=O)N[C@@H](Cc1ccccc1)C(=O)N[C@H](C(=O)N[C@@H](CCCCN)C(=O)N[C@@H](CCCCN)C(=O)N[C@@H](CCCCN)C(=O)O)CCSCC(=O)N[C@@H](CCC(=O)O)C(=O)N2 [Cyclic peptide 43] ({CH2CO}-E[hCys]RGD[Orn]F[hCys]KKK-OH; linker 2-6 via X1; thioether N-8)	A (The residual rate of the cyclic peptide is 70% or more.)	
< 50 nM	C[C@H](NC(=O)[C@@H]1CCSCC(=O)N[C@@H](CC(=O)O)C(=O)N[C@H]2CCSCC(=O)NCCCC[C@H](NC(=O)[C@H](CC(=O)O)NC(=O)CNC(=O)[C@H](CCCNC(=N)N)NC2=O)C(=O)N[C@@H](Cc2ccccc2)C(=O)N1)C(=O)N[C@@H](CCCCN)C(=O)N[C@@H](CCCCN)C(=O)N[C@@H](CCCCN)C(=O)O [Cyclic peptide 45] ({CH2CO}-D[hCys]RGDKF[hCys]AKKK-OH; linker 2-6 via X1; thioether N-8)	A (The residual rate of the cyclic peptide is 70% or more.)	
